# Experiments:
# Conditions in all cases: 18 days after treatment
# [1] = test system: PANMI (Millet, wild proso); test: Greenhouse postemergence herbicidal evaluation, % weed control; type: in vivo, Panicum miliaceum
# Procedure: (§1) In the following examples, synergism for two-way combinations is determined by the Colby1 method, i.e. the expected (or predicted) response of the combination is calculated by taking the product of the observed response for each individual component of the combination when applied alone divided by 100 and subtracting this value from the sum of the observed response for each component when applied alone. Synergism of the combination is then determined by comparing the observed response of the combination to the expected (or predicted) response as calculated from the observed responses of each individual component alone. If the observed response of the combination is greater than the expected (or predicted) response then the combination is said to be synergistic and falls within the definition of synergistic effect as previously defined.
# (§2) In this evaluation, seedlings of the plant species listed below are grown in Metromix® soil in jiffy flats for about two weeks, to the 2-3 leaf growth stage. The test compounds are dispersed in water containing 1.0% Sunit II, a methylated seed oil of Agsco, Inc., and applied to the plants through a spray nozzle operating at 40 psi for a predetermined time so as to obtain a range of application rates of about 3.0 g/ha to 250 g/ha. Each treatment is replicated 3 times. After spraying, the plants are placed on greenhouse benches and are cared for in accordance with conventional greenhouse procedures. Eighteen days after treatment, the seedling plants are examined and the % weed control as compared to the untreated check is recorded.
# (§3) For replicated treatments, the data are averaged. The Colby method of analysis is used to determine the resultant biological effect of the combination treatment as compared to the biological effect of each component when applied alone. In Tables I and II, obs designates observed and exp designates expected.
# [2] = test system: ERBVI (Cupgrass, woolly); test: as above; type: in vivo, Eriochloa villosa
# Procedure: as §1, §2, §3
# [3] = test system: ZEAMX (Corn); test: Greenhouse postemergence herbicidal evaluation, crop response; type: in vivo, Zea mays
# Procedure: as §1, §2, §3
# [4] = test system: PANDI (Fall panicum); test: Greenhouse postemergence herbicidal evaluation, % weed control; type: in vivo, Panicum dichotomiflorum
# Procedure: as §1, §2, §3
# [5] = test system: SETFA (Foxtail, giant); test: as above; type: in vivo, Setaria faberi
# Procedure: as §1, §2, §3
# [6] = test system: SORHA (Johnsongrass); test: as above; type: in vivo, Sorghum halepense
# Procedure: as §1, §2, §3
# [7] = test system: ECHCG (Barnyardgrass); test: as above; type: in vivo, Echinochloa crus-galli
# Procedure: as §1, §2, §3
# [8] = test system: CASOB (Sicklepod); test: as above; type: in vivo, Senna obtusifolia
# Procedure: as §1, §2, §3
# [9] = test system: DIGSA (Crabgrass, large); test: as above; type: in vivo, Digitaria sanguinalis
# Procedure: as §1, §2, §3
# [10] = test system: BRAPP (Signalgrass, broadleaf); test: as above; type: in vivo, Brachiaria platyphylla
# Procedure: as §1, §2, §3
# [11] = test system: SETVI (Foxtail, green); test: as above; type: in vivo, Setaria viridis
# Procedure: as §1, §2, §3
# [12] = test system: AGRRE (Quackgrass); test: as above; type: in vivo, Elytrigia repens
# Procedure: as §1, §2, §3
# [13] = test system: SORBI (Shattercane); test: as above; type: in vivo, Sorghum bicolor
# Procedure: as §1, §2, §3
compound,measurement,setting,value
Atrazine [reference compound],% WEED CONTROL PANMI Obs,[1]; 250 g/ha alone,60%
same,% WEED CONTROL ERBVI Obs,[2]; 250 g/ha alone,10%
same,"% crop injury, corn (observed)",[3]; 250 g/ha alone,0%
same,% WEED CONTROL PANDI Obs,[4]; 250 g/ha alone,5%
same,% WEED CONTROL SETFA Obs,[5]; 250 g/ha alone,85%
same,% WEED CONTROL SORHA Obs,[6]; 250 g/ha alone,0%
same,% WEED CONTROL ECHCG Obs,[7]; 250 g/ha alone,85%
same,% WEED CONTROL CASOB Obs,[8]; 250 g/ha alone,40%
same,% WEED CONTROL DIGSA Obs,[9]; 250 g/ha alone,15%
same,% WEED CONTROL BRAPP Obs,[10]; 250 g/ha alone,20%
same,% WEED CONTROL SETVI Obs,[11]; 250 g/ha alone,90%
same,% WEED CONTROL AGRRE Obs,[12]; 250 g/ha alone,45%
same,% WEED CONTROL SORBI Obs,[13]; 250 g/ha alone,0%
"CCCS(=O)(=O)Oc1c(C(=O)c2ccc3c(c2C)C(C)(C)CS3(=O)=O)cnn1C [DHBT IA, 1-propanesulfonic acid ester of 2,3-dihydro-3,3,4-trimethylbenzo [b]thien-5-yl 5-hydroxy-1-methylpyrazol-4-yl ketone S,S-dioxide]",% WEED CONTROL PANMI Obs,[1]; 3.00 g/ha alone,40%
same,% WEED CONTROL PANMI Obs,[1]; 6.00 g/ha alone,70%
same,% WEED CONTROL PANMI Obs,[1]; 12.0 g/ha alone,95%
same,% WEED CONTROL ERBVI Obs,[2]; 3.00 g/ha alone,0%
same,% WEED CONTROL ERBVI Obs,[2]; 6.00 g/ha alone,15%
same,% WEED CONTROL ERBVI Obs,[2]; 12.0 g/ha alone,40%
same,"% crop injury, corn (observed)",[3]; 3.00 g/ha alone,0%
same,"% crop injury, corn (observed)",[3]; 6.00 g/ha alone,0%
same,"% crop injury, corn (observed)",[3]; 12.0 g/ha alone,0%
same,% WEED CONTROL PANDI Obs,[4]; 3.00 g/ha alone,40%
same,% WEED CONTROL PANDI Obs,[4]; 6.00 g/ha alone,55%
same,% WEED CONTROL PANDI Obs,[4]; 12.0 g/ha alone,75%
same,% WEED CONTROL SETFA Obs,[5]; 3.00 g/ha alone,35%
same,% WEED CONTROL SETFA Obs,[5]; 6.00 g/ha alone,55%
same,% WEED CONTROL SETFA Obs,[5]; 12.0 g/ha alone,90%
same,% WEED CONTROL SORHA Obs,[6]; 3.00 g/ha alone,35%
same,% WEED CONTROL SORHA Obs,[6]; 6.00 g/ha alone,40%
same,% WEED CONTROL SORHA Obs,[6]; 12.0 g/ha alone,65%
same,% WEED CONTROL ECHCG Obs,[7]; 3.00 g/ha alone,45%
same,% WEED CONTROL ECHCG Obs,[7]; 6.00 g/ha alone,60%
same,% WEED CONTROL ECHCG Obs,[7]; 12.0 g/ha alone,80%
same,% WEED CONTROL CASOB Obs,[8]; 3.00 g/ha alone,15%
same,% WEED CONTROL CASOB Obs,[8]; 6.00 g/ha alone,25%
same,% WEED CONTROL CASOB Obs,[8]; 12.0 g/ha alone,25%
same,% WEED CONTROL DIGSA Obs,[9]; 3.00 g/ha alone,50%
same,% WEED CONTROL DIGSA Obs,[9]; 6.00 g/ha alone,70%
same,% WEED CONTROL DIGSA Obs,[9]; 12.0 g/ha alone,85%
same,% WEED CONTROL BRAPP Obs,[10]; 3.00 g/ha alone,25%
same,% WEED CONTROL BRAPP Obs,[10]; 6.00 g/ha alone,55%
same,% WEED CONTROL BRAPP Obs,[10]; 12.0 g/ha alone,100%
same,% WEED CONTROL SETVI Obs,[11]; 3.00 g/ha alone,35%
same,% WEED CONTROL SETVI Obs,[11]; 6.00 g/ha alone,100%
same,% WEED CONTROL SETVI Obs,[11]; 12.0 g/ha alone,80%
same,% WEED CONTROL AGRRE Obs,[12]; 3.00 g/ha alone,20%
same,% WEED CONTROL AGRRE Obs,[12]; 6.00 g/ha alone,30%
same,% WEED CONTROL AGRRE Obs,[12]; 12.0 g/ha alone,35%
same,% WEED CONTROL SORBI Obs,[13]; 3.00 g/ha alone,30%
same,% WEED CONTROL SORBI Obs,[13]; 6.00 g/ha alone,35%
same,% WEED CONTROL SORBI Obs,[13]; 12.0 g/ha alone,60%
